# pEC50: −log10 of the molar value.
# System: N548 mutant cells
# Assay: in vitro
# Conditions: for selectivity profile of cell death rescue in panel of htt expressing cell lines: N63, N548, FL htt cell lines, in words; for maximal fold induction / EC50: Rattus norvegicus; for maximal fold induction: 72 h, read-out: N548 Mut: Max, maximum rescue expressed as fold over DMSO treated N548 mutant cells; for EC50 / pEC50: read-out: EC50 based on activity in N548 mutant cells; for N548 Mut: Max, maximum rescue expressed as fold over DMSO treated N548 mutant cells: 0.5% IFS, 39° C., 3 d
# Protocol: Embryonic rat striatal neurons were conditionally immortalized by stably transfecting a temperature-sensitive SV40 large T-antigen (T-ag) to generate the ST14A cell line. ST14A cells proliferate at the permissive temperature (33° C.), but stop dividing at 39° C., as a result of T-ag degradation. […] As htt protein context modulates polyQ toxicity, testing these different length htt proteins could provide insight into the basis for context dependence.
# ST14A Assay System: Calcein acetoxylmethyl ester (AM) (Molecular Probes, Eugene, Oreg.) is a non-fluorescent, membrane-permeable compound that is cleaved by intracellular esterases, which subsequently forms the anionic, fluorescent compound, calcein, that cannot permeate the cell membrane. […] A fluorescence viability assay, that is based on conversion of a non-fluorescent substrate (calcein AM) to a fluorescent product by nonspecific esterases in live cells, was employed to monitor cell death in wild type (wt) ST14A-Htt and mut ST14A-Htt cell lines. Cell death is indicated by a decrease in fluorescence. […] 3 μl of each compound was transferred from daughter plates to triplicate assay plates for a final assay concentration of 4 μg/ml in 0.1% DMSO (10 μM for NINDS compounds). Cells were incubated at 33° C. for 3 h to enhance attachment and then shifted to 39° C. (with 5% CO2). After 3 days (d), cells were washed 10 times with phosphate buffered saline (PBS) leaving 20 μl residual PBS per well, and 20 μl of 2 μg/ml calcein AM (Molecular probes) in PBS was added per well. […] The fluorescence intensity in each well was normalized to the median of each plate. The median normalized fluorescence of each triplicate assay wells was determined. A well with more than 50% increase in intensity above the median signal intensity was considered a “hit.”
# Assay Development: An assay was developed for detecting mutant htt-induced cell death in ST14A cells in a 384-well plate format. A calcein AM-based method was used to detect cell viability, and optimized the cell number and time course for this method. […] A cell number titration was performed to determine the cell density at which calcein fluorescence was not saturated and the coefficient of variation (CV) was low (FIG. 14A-B). A low CV is critical for a high-throughput assay as it decreases noise and enhances sensitivity. […] Next, the kinetics of the fluorescence signal were determined.
# Next, the serum concentrations that induce cell death in these cells were determined. Cells were seeded in decreasing serum (IFS) concentrations (5 to 0%), and cell viability was assayed after 3 d using the calcein AM assay (FIG. 14E).
# A Z′ value of greater than 0 is required for a usable assay, with a maximum value of 1.0 for an ideal assay. For the assay, calcein fluorescence was used on the day of seeding to represent 100% rescue. The difference in calcein fluorescence signal on the day of seeding and after different number of days under serum deprivation was determined and used to calculate the Z′ factor. […] About 47,000 compounds were assayed in a 384-well plate format in triplicate to enhance the reliability of the primary screen.
EC50,Compound,selectivity profile of cell death rescue in panel of htt expressing cell lines,maximal fold induction,"N548 Mut: Max, maximum rescue expressed as fold over DMSO treated N548 mutant cells",pEC50
5 µg/mL,O=[N+]([O-])c1cc(CN2CCN(CCO)CC2)ccc1Cl [revertin-13],,1.5,,
1 µg/mL,O=c1[nH]c2c(c(=O)[nH]1)C(c1cccc([N+](=O)[O-])c1)C=C(c1ccccc1)O2 (stereo not drawn) [revertin-15],,3,,
1 µg/mL,CCCN1C(=O)C(=O)c2cc(C)ccc21 [revertin-16],,2,,
4 µg/mL,CC(C)CC(NC(=O)OCc1ccccc1)C(=O)Oc1ccc2c(=O)c(-c3ccc([N+](=O)O)cc3)coc2c1 (stereo not drawn) [revertin-17],,1.5,,
4 µg/mL,COc1ccc(C(CCN(CC2CCOC(C)(C)C2)C(C)=O)c2ccccc2)cc1 (stereo not drawn) [revertin-18],,1.5,,
4 µg/mL,COc1cc2c3c(c1)C(C)CC(C)(C)N3C(=O)C2=O (stereo not drawn) [revertin-19],,2,,
8 µg/mL,COc1ccc(CN(CCC2(c3ccccc3)CCOC(C)(C)C2)C(=O)c2ccco2)cc1OC (stereo not drawn) [revertin-20],,2,,
4 µg/mL,Cc1ccc(-c2nc(NS(=O)(=O)c3ccc(Cl)cc3)sc2C)cc1 [revertin-21],,3,,
5 µg/mL,CC12CC3CC(C)(C1)CC(NC=O)(C3)C2 [revertin-26],,1.5,,
2 µg/mL,CC1=NN(C(N)=S)C(=O)C1NNc1ccccc1C(F)(F)F (stereo not drawn) [revertin-29],,3,,
2 µg/mL,CC(C)C1=CCC2C(=C1)CCC1C(C(=O)O)CCCC21C (stereo not drawn) [revertin-30],,4,,
2 µg/mL,O=C(NNC(C(=O)Cc1cccs1)C(F)(F)F)c1cccc(Br)c1 (stereo not drawn) [revertin-31],,4,,

# More lines, now with the values behind:
Compound,EC50,selectivity profile of cell death rescue in panel of htt expressing cell lines,maximal fold induction,"N548 Mut: Max, maximum rescue expressed as fold over DMSO treated N548 mutant cells",pEC50
CC1(C)C(C=C(Cl)Cl)C1C(=O)C1=C(O)CCCC1=O (stereo not drawn) [revertin-6],3 µg/mL,N548 mutant selective,8,,
CCCCCCN(C(=O)CCCC)C(C)c1nc2ccccc2c(=O)n1-c1ccccc1OC (stereo not drawn) [revertin-10],4 µg/mL,N63 and N548 mutant selective,1.5,,
O=c1cccc2n1CC1CC2CN(C2=NC=NC3c4cc(Cl)ccc4NC23)C1 (stereo not drawn) [revertin-12],3 µg/mL,,1.5,,
CCOC(=O)c1cccc(NS(O)(O)c2ccc(OC)cc2)c1 [revertin-14],,N548 and FL-mutant selective,,,
CC(=O)N(c1ccc(Br)cc1)C1C(=O)c2ccccc2C(=O)C1N(C)C (stereo not drawn) [revertin-24],2 µg/mL,,25,,
CCC1CN2CCc3cc(OC)c(OC)cc3C2CC1CC1c2cc(OC)c(OC)cc2CCN1C(=O)c1ccco1 (stereo not drawn) [revertin-25],3 µg/mL,,4,,
Oc1ccc2c(c1)CC1NCCc3cc(O)c(O)c-2c31 (stereo not drawn) [revertin-27],4 µg/mL,,3,,
Antimycin A [reference compound],,,,3 fold,5.30
Nonactin [reference compound],,,,2.5 fold,6.22
Rotenone [reference compound],,,,2.5 fold,5.30

# From patent publication US20100022637A1, “IDENTIFICATION OF ANTI-CANCER COMPOUNDS AND COMPOUNDS FOR TREATING HUNTINGTON'S DISEASE AND METHODS OF TREATMENT THEREOF” (THE TRUSTEES OF COLUMBIA UNIVERSITY IN THE CITY OF NEW YORK, priority 2005, published 2010)
